Results on 36 compounds are retold here after ChEMBL document CHEMBL5316264, “Identification of N- and C-3-Modified Laudanosoline Derivatives as Novel Influenza PAN Endonuclease Inhibitors” (J Med Chem, 2023).

Active and inactive are the calls of the source. The calls are words filed in the database; no cut-off is given here.

Data set [1] is described as follows: Cytotoxicity against MDCK cells incubated for 48 hrs by MTT assay. The format is toxicity, cell-based, Canis lupus familiaris. The settings on record: dog.
The nature of data set [2]: in vitro. The settings on record: dog, MDCK cells.
Data set [3] can be described thus: Metabolic stability in mouse plasma assessed as compound remaining measured after 30 mins by LC-MS/MS analysis. It counts as ADME, cell-free. To be noted: read-out: Stability.
Data set [4] is described as follows: Metabolic stability in mouse plasma assessed as compound remaining measured after 60 mins by LC-MS/MS analysis. The format is ADME, cell-free. To be noted: read-out: Stability.
The nature of data set [5]: Metabolic stability in mouse plasma assessed as compound remaining measured after 90 mins by LC-MS/MS analysis. The format is ADME, cell-free. The settings on record: read-out: Stability.
Data set [6] is described as follows: Metabolic stability in mouse plasma assessed as compound remaining measured after 120 mins by LC-MS/MS analysis. The format is ADME, cell-free. To be noted: read-out: Stability.
Data set [7] deals with Influenza A virus. Kind of data set: Antiviral activity against influenza A virus A/WSN/33 (H1N1) infected in MDCK cells at 20 uM pre-infected with virus for 1 hr followed by compound addition and measured after 24 hrs post infection. The format is functional, organism-based.
Data set [8] has as its target Polymerase acidic protein (Influenza A virus (A/Puerto Rico/8/1934(H1N1))) (UniProt P03433). Kind of data set: Inhibition of Influenza A virus N-terminal domain of PA endonuclease using 6FAM-TGGCAATATCAGCTCCACA-MGBNFQ as fluorescent substrate by FRET analysis.
Data set [9] concerns Influenza A virus. Kind of data set: Antiviral activity against influenza A virus H5N1(A/Duck/Guangdong/212/2004) infected in MDCK cells assessed as inhibition of cytopathic effect incubated for 48 hrs by MTT assay. The format is functional, organism-based.
Data set [10] concerns Influenza A virus. Kind of data set: Antiviral activity against influenza A virus H3N2(JX/312) infected in MDCK cells assessed as inhibition of cytopathic effect incubated for 48 hrs by MTT assay. It counts as functional, organism-based. Background: Damage to the host cells serves as the signal in cytopathic effect assays.
Data set [11] relates to Influenza A virus. Kind of data set: Antiviral activity against influenza A virus Flu (B/Lee/1940) infected in MDCK cells assessed as inhibition of cytopathic effect incubated for 48 hrs by MTT assay. The format is functional, organism-based.
The test system of data set [12] is Influenza A virus. Kind of data set: Antiviral activity against Influenza A A/WSN/33 (H1N1) infected in BALB/c mouse at 10 mg/kg/day, ip administered twice daily for 5 days starting from 1 hrs post infection and measured daily for 14 days. To be noted: time 5.0 day. The format is functional, organism-based.
Data set [13] is described as follows: Metabolic stability in mouse liver microsomes assessed as half life at 10 uM incubated for 5 mins in presence of NADPH by LC-MS/MS analysis. It counts as ADME, Microsome.
Data set [14] in a line: Metabolic stability in mouse liver microsomes assessed as intrinsic clearance at 10 uM incubated for 5 mins in presence of NADPH by LC-MS/MS analysis. The format is ADME, Microsome. The settings on record: read-out: CLH. In general terms: Liver microsomes are a subcellular fraction often used to study metabolism.

The term CC50 denotes the concentration that lowers cell viability or growth by half. The low end stands for greater toxicity to the cells, the high end for lower toxicity to the cells. Consider `O=C(Nc1ccccc1)[C@@H]1Cc2cc(O)c(O)cc2[C@H](Cc2ccc(O)c(O)c2)N1C(=O)c1ccccc1Cl`, for which the CC50 at 48 h in [1] stood at 169 µM. The selectivity ratio in data set [2] worked out at 10.8.

In data set [1], `COC(=O)[C@@H]1Cc2cc(O)c(O)cc2[C@H](Cc2ccc(O)c(O)c2)N1C(=O)c1ccccc1C(F)(F)F` returned a CC50 at 48 h above 101 µM. In addition, the selectivity ratio in [2] is above 11.1.

In turn, `COC(=O)[C@@H]1Cc2cc(O)c(O)cc2[C@H](Cc2ccc(O)c(O)c2)N1C(=O)c1ccc(C(F)(F)F)cc1` had a half-maximal cytotoxic concentration (CC50) at 48 h in [1] above 101 µM. Moreover, the selectivity ratio in [2] was above 10.8.

Take `COC(=O)[C@@H]1Cc2cc(O)c(O)cc2[C@H](Cc2ccc(O)c(O)c2)N1C(=O)c1ccccc1[N+](=O)[O-]`: in data set [1], the CC50 at 48 h was above 101 µM. In addition, the selectivity ratio in data set [2] was above 9.2.

Compound `COC(=O)COC(=O)[C@@H]1Cc2cc(O)c(O)cc2[C@H](Cc2ccc(O)c(O)c2)N1C(=O)c1ccccc1Cl` showed a CC50 at 48 h in data set [1] of 163 µM. Moreover, the selectivity ratio in [2] was found to be 67.1.

`CN1CCc2cc(O)c(O)cc2C1Cc1ccc(O)c(O)c1` (racemic) displayed a CC50 at 48 h in data set [1] above 200 µM. Further, in data set [2], the selectivity ratio is above 5.4.

The compound `COC(=O)[C@@H]1Cc2cc(O)c(O)cc2[C@H](Cc2ccc(O)c(O)c2)N1C(=O)c1cccc(F)c1` had a CC50 at 48 h in data set [1] of 73.7 µM. Moreover, the selectivity ratio in data set [2] was 25.8.

As for `CC(C)[N+](C)(CCOC(=O)C1c2ccccc2Oc2ccccc21)C(C)C` [PROPANTHELINE BROMIDE], the remaining at 0.5 h in [3] stood at 45.5%. Also, the remaining at 1 h in data set [4] is 18.2%. Further, the remaining at 1.5 h in data set [5] is 10.3%. The remaining at 2 h in data set [6] stood at 2%.

Compound `O=C(O[C@@H]1Cc2c(O)cc(O)cc2O[C@@H]1c1cc(O)c(O)c(O)c1)c1cc(O)c(O)c(O)c1` [EPIGALOCATECHIN GALLATE] came in with a CC50 at 48 h in data set [1] above 100 µM. The selectivity ratio in data set [2] is above 3.3.

For `COC(=O)[C@@H]1Cc2cc(O)c(O)cc2[C@H](Cc2ccc(O)c(O)c2)N1C(=O)c1ccccc1Br`, in data set [1], the CC50 at 48 h is above 101 µM. Further, the selectivity ratio in data set [2] was above 29.5.

Compound `COC(=O)[C@@H]1Cc2cc(O)c(O)cc2[C@H](Cc2ccc(O)c(O)c2)N1C(=O)c1ccc(Br)cc1` yielded a CC50 at 48 h in data set [1] above 101 µM. In addition, in data set [2], the selectivity ratio was above 25.5.

On to `COC(=O)[C@@H]1Cc2cc(O)c(O)cc2[C@H](Cc2ccc(O)c(O)c2)N1C(=O)c1c(Cl)cccc1Cl`, for which, in data set [1], the cytotoxic concentration (CC50) at 48 h turned out to be 81.6 µM. Moreover, in data set [2], the selectivity ratio is 15.5.

Take `CC(=O)N[C@H]1[C@H]([C@H](O)[C@H](O)CO)OC(C(=O)O)=C[C@@H]1NC(=N)N`: the outcome in [7] was inactive.

`CN(C)C(=O)[C@@H]1Cc2cc(O)c(O)cc2[C@H](Cc2ccc(O)c(O)c2)N1C(=O)c1ccccc1Cl` showed a CC50 at 48 h in data set [1] of 137 µM. The selectivity ratio in data set [2] turned out to be 10.8.

The compound `COC(=O)[C@@H]1Cc2cc(O)c(O)cc2[C@H](Cc2ccc(O)c(O)c2)N1C(=O)c1cccc(C(F)(F)F)c1` gave a CC50 at 48 h in data set [1] above 101 µM. Moreover, in data set [2], the selectivity ratio was above 11.8.

`COC(=O)[C@@H]1Cc2cc(O)c(O)cc2[C@H](Cc2ccc(O)c(O)c2)N1C(=O)c1ccccc1`: the CC50 at 48 h in data set [1] is 157 µM. In data set [8], the inhibition result is “Dose-Dependent Effect”. Moreover, the selectivity ratio in data set [2] is 29.7.

Compound `O=C(Oc1ccccc1)[C@@H]1Cc2cc(O)c(O)cc2[C@H](Cc2ccc(O)c(O)c2)N1C(=O)c1ccccc1Cl` showed a CC50 at 48 h in data set [1] of 70.3 µM. Besides, in data set [2], the selectivity ratio came out at 52.1.

Turning to `O=C(O)[C@@H]1Cc2cc(O)c(O)cc2[C@H](Cc2ccc(O)c(O)c2)N1C(=O)c1ccccc1Cl`, the midpoint of cytotoxicity in [1], the CC50 at 48 h, lay at 103 µM. Further, the selectivity ratio in data set [2] was 5.4.

Broadly, the EC50 is the concentration at which the effect is half-maximal. In data set [1], `CCC(CC)[C@H](NC(C)=O)[C@@H]1[C@H](O)[C@@H](C(=O)O)C[C@H]1NC(=N)N` [PERAMIVIR ANHYDROUS] gave a CC50 at 48 h above 101 µM. Moreover, the EC50 in data set [9] turned out to be 1060 nM; in data set [10] it was 215000 nM; in data set [11], 1660 nM. Further, in data set [12], the result was Active. The selectivity ratio in data set [2] was above 19.2.

For the compound `COC(=O)[C@@H]1Cc2cc(O)c(O)cc2[C@H](Cc2ccc(O)c(O)c2)N1C(=O)c1cccc([N+](=O)[O-])c1`, in data set [1], the CC50 at 48 h was above 101 µM. Further, in data set [2], the selectivity ratio was above 5.3.

As to `COC(=O)[C@@H]1Cc2cc(O)c(O)cc2[C@H](Cc2ccc(O)c(O)c2)N1C(=O)c1ccccc1F`, the CC50 at 48 h in data set [1] was 82.3 µM. Moreover, in data set [2], the selectivity ratio came out at 29.7.

Consider `COC(=O)[C@@H]1Cc2cc(O)c(O)cc2[C@H](Cc2ccc(O)c(O)c2)N1C(=O)c1ccc(F)cc1`, for which the CC50 at 48 h in data set [1] was above 101 µM. Besides, the selectivity ratio in data set [2] was above 33.6.

`COC(=O)[C@@H]1Cc2cc(O)c(O)cc2[C@H](Cc2ccc(O)c(O)c2)N1C(=O)c1cccc(Cl)c1`: in data set [1], the CC50 at 48 h came to 61.1 µM. In addition, in [2], the selectivity ratio turned out to be 25.3.

`O=C1c2c(O)c(=O)ccn2N([C@@H]2c3ccccc3SCc3c2ccc(F)c3F)[C@@H]2COCCN12` [BALOXAVIR] had a CC50 at 48 h in data set [1] above 100 µM. In data set [2], the selectivity ratio was above 11700.

For `CCCCCCC(=O)N1[C@H](C(=O)OC)Cc2cc(O)c(O)cc2[C@@H]1Cc1ccc(O)c(O)c1`, the midpoint of cytotoxicity in data set [1], the CC50 at 48 h, lay at 84.3 µM. For the same compound, the selectivity ratio in data set [2] was 5.1.

`COC(=O)CNC(=O)[C@@H]1Cc2cc(O)c(O)cc2[C@H](Cc2ccc(O)c(O)c2)N1C(=O)c1ccccc1Cl` came in with a CC50 at 48 h in data set [1] of 143 µM. Further, in [2], the selectivity ratio came out at 36.8.

One may read the half-life as the time in which the quantity being followed falls by half. `O=C(O)Cc1ccccc1Nc1c(Cl)cccc1Cl` [DICLOFENAC]: in [13], the half-life at 10 µM came to 12.1 min. For the same compound, in data set [14], the microsomal CLint at 10 µM was 112 µL/min/mg.

Turning to `COC(=O)[C@@H]1Cc2cc(O)c(O)cc2[C@H](Cc2ccc(O)c(O)c2)N1C(=O)c1ccccc1Cl`, the CC50 at 48 h in data set [1] worked out at 89.8 µM. Moreover, the EC50 in data set [9] was found to be 2360 nM; in data set [10] it was 920 nM; in data set [11], 860 nM. Also, the selectivity ratio in data set [2] turned out to be 49.3.

Turning to `COC(=O)[C@@H]1Cc2cc(O)c(O)cc2[C@H](Cc2ccc(O)c(O)c2)N1C(=O)c1ccc2ccccc2c1`, the 50% cytotoxic concentration (CC50) at 48 h in data set [1] was found to be 45.2 µM. In data set [2], the selectivity ratio was determined as 15.6.

The compound `COC(=O)[C@@H]1Cc2cc(O)c(O)cc2[C@H](Cc2ccc(O)c(O)c2)N1C(=O)C1CCCCC1` came in with a CC50 at 48 h in data set [1] of 64.5 µM. Moreover, the selectivity ratio in [2] was determined as 3.4.

The compound `C=CC(=O)N1[C@H](C(=O)OC)Cc2cc(O)c(O)cc2[C@@H]1Cc1ccc(O)c(O)c1` had a CC50 at 48 h in [1] of 47.5 µM. The selectivity ratio in data set [2] turned out to be 8.9.

`COC(=O)[C@@H]1Cc2cc(O)c(O)cc2[C@H](Cc2ccc(O)c(O)c2)N1C(=O)c1ccc(Cl)cc1`: in data set [1], half-maximal cytotoxicity (CC50 at 48 h) was put at 87.4 µM. Also, the selectivity ratio in data set [2] stood at 34.5.

`O=C(Nc1ccncc1)[C@@H]1Cc2cc(O)c(O)cc2[C@H](Cc2ccc(O)c(O)c2)N1C(=O)c1ccccc1Cl`: in [1], the CC50 at 48 h was determined as 203 µM. Moreover, the results for the EC50 in data set [9], in data set [10] and in data set [11] were 2850 nM, 950 nM and 820 nM, respectively. Besides, the selectivity ratio in data set [2] stood at 101.

In data set [1], `COC(=O)[C@@H]1Cc2cc(O)c(O)cc2[C@H](Cc2ccc(O)c(O)c2)N1C(=O)c1cccc(Br)c1` came in with a CC50 at 48 h above 101 µM. The selectivity ratio in data set [2] was above 26.4.

In data set [1], `CCOC(=O)[C@@H]1Cc2cc(O)c(O)cc2[C@H](Cc2ccc(O)c(O)c2)N1C(=O)c1ccccc1Cl` returned a CC50 at 48 h of 98.5 µM. In data set [2], the selectivity ratio is 30.7.

Regarding `COC(=O)[C@@H]1Cc2cc(O)c(O)cc2[C@H](Cc2ccc(O)c(O)c2)N1C(=O)c1ccc(Cl)cc1Cl`, in [1], the CC50 at 48 h is above 101 µM. Moreover, the selectivity ratio in data set [2] was above 21.2.
